From patent US20240277698A1, “METHODS OF USING ALDOSTERONE SYNTHASE INHIBITORS” (CINCOR PHARMA, INC., priority 2021, published 2024)

Assays:
[1] = Single-ascending dose (SAD) study in healthy subjects: plasma and urine pharmacokinetics; settings: human, in vivo
Experimental: A second, generally lower peak was often observed at 3 to 4 hours postdose.
A second, generally lower peak was often observed at 3 to 4 hours post-dose. […] Over the anticipated therapeutically relevant dose range (through 10 mg), peak and overall exposures (as assessed by Cmax and area under the concentration-time curve [AUC]) increased in a generally dose-proportional manner.
Single- and Multiple-Dose Plasma Pharmacokinetics of (R)-compound 1. The single- and multiple-dose PK profiles of (R)-compound 1 have been characterized in healthy subjects in the Phase 1 studies. FIG. 7 depicts the mean plasma concentration versus time profiles of (R)-compound 1 after administration of single oral doses of (R)-compound 1 ranging from 1 mg to 360 mg (under low salt conditions) and at steady-state over the range of 0.5 mg to 5 mg (under low and/or normal salt conditions). After oral administration, (R)-compound 1 is rapidly absorbed with peak concentrations observed within 3 hours after dosing (range 0.5 to 4 hours).

aldosterone synthase = biological target: T1, aldosterone synthase (Homo sapiens, UniProt P19099); test: SAD study: plasma and urine aldosterone and precursors (Cortrosyn challenge, standing, normal and low salt diet); type: in vivo; settings: normal salt diet, low salt diet conditions
T1 construct: synthesized in the adrenal cortex by aldosterone synthase; endogenous in cells; host or cells: adrenal cortex of healthy human subjects (in vivo, oral dosing)
T1 sequence (P19099 25-503): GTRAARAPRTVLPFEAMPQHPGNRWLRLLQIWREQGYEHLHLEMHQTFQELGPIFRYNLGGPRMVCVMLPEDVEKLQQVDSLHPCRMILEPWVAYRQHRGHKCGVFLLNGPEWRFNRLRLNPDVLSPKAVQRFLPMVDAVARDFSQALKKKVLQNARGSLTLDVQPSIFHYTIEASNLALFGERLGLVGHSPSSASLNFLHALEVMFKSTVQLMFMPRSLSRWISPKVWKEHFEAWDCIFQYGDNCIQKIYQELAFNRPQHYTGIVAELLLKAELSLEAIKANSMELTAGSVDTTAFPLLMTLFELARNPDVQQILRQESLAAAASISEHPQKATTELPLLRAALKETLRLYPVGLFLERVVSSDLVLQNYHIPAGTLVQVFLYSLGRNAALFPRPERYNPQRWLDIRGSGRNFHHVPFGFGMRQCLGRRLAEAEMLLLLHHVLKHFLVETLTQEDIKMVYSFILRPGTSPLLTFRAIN
Experimental: Single doses of (R)-compound 1 reduced plasma and urine aldosterone levels by approximately 85% to 90% in a dose-dependent manner, consistently reaching a maximum effect at a dose of 10 mg (R)-compound 1 under the different conditions tested (Cortrosyn® challenge, standing, normal salt diet, and low salt diet conditions). No change in plasma cortisol levels was apparent across the full dose range tested (0 to 360 mg (R)-compound 1).
A maximum effect on aldosterone reduction was consistently achieved at a dose of 10 mg under the different conditions tested in healthy subjects (Cortrosyn® challenge, standing, normal salt diet, and low salt diet conditions). No change in plasma cortisol levels after the Cortrosyn challenge was apparent across the full dose range tested (0 to 360 mg of (R)-compound 1).
(R)-compound 1 induced a dose-dependent blunting of plasma aldosterone levels as compared to Day −1 baseline and as compared to placebo, with a maximum effect achieved at the 10 mg dose level (approximate 85% to 90% decrease as compared to Day −1). This effect was observed both on the post-Cortrosyn challenge readout (time interval 0 to 4 hours), and on the standing aldosterone peak (time interval 4 to 12 hours) (See FIG. 10).
Notes: Plasma aldosterone levels that were Below limit of quantification were set to the lower limit of quantitation value (5 pg/mL) to allow further calculation. […]

SMILES: CCC(=O)N[C@@H]1CCCc2c(-c3ccc4c(c3)CCC(=O)N4C)cncc21 [(R)-Compound 1, (R)—N-(4-(1-methyl-2-oxo-1,2,3,4-tetrahydroquinolin-6-yl)-5,6,7,8-tetrahydroisoquinolin-8-yl)propionamide]
- CL renal [1]: 4.63 to 7.38 mL/min
- Renal clearance as share of total plasma clearance, average [1]: 15.5%
- Renal clearance as share of total plasma clearance, range of individual values [1]: 6.53-31.8%
- fraction unbound [1]: 0.26
- dose recovered unchanged in the urine ([1]; po): Approximately 110%
- half-life ([1]; po): 25 to 31 h
- median time (tmax) to maximum observed concentration (Cmax) ([1]; po): 0.5 to 2 h
- second, generally lower peak, time postdose ([1]; po): 3 to 4 h
- time to peak concentrations, range ([1]; po): 0.5 to 4 h
- AUC(0-inf) ([1]; po, 1 mg): 330 ng·h/mL
- AUC(0-t) ([1]; po, 1 mg): 147 ng·h/mL
- AUCextrapoloated ([1]; po, 1 mg): 1.66%
- CL/F ([1]; po, 1 mg): 3270 mL/h
- Cmax ([1]; po, 1 mg): 10.1 ng/mL
- Tmax ([1]; po, 1 mg): 1 h
- Vd/F ([1]; po, 1 mg): 122 L
- half-life ([1]; po, 1 mg): 27.4 h
- AUC(0-inf) ([1]; po, 3 mg): 1070 ng·h/mL
- AUC(0-t) ([1]; po, 3 mg): 491 ng·h/mL
- AUCextrapoloated ([1]; po, 3 mg): 1.68%
- CL/F ([1]; po, 3 mg): 2820 mL/h
- Cmax ([1]; po, 3 mg): 31.9 ng/mL
- Tmax ([1]; po, 3 mg): 2 h
- Vd/F ([1]; po, 3 mg): 117 L
- half-life ([1]; po, 3 mg): 29.1 h
- AUC(0-inf) ([1]; po, 10 mg): 3630 ng·h/mL
- AUC(0-t) ([1]; po, 10 mg): 1600 ng·h/mL
- AUCextrapoloated ([1]; po, 10 mg): 1.37%
- CL/F ([1]; po, 10 mg): 2820 mL/h
- Cmax ([1]; po, 10 mg): 125 ng/mL
- Tmax ([1]; po, 10 mg): 0.5 h
- Vd/F ([1]; po, 10 mg): 123 L
- half-life ([1]; po, 10 mg): 30.7 h
- AUC(0-inf) ([1]; po, 30 mg): 11000 ng·h/mL
- AUC(0-t) ([1]; po, 30 mg): 5260 ng·h/mL
- AUCextrapoloated ([1]; po, 30 mg): 0.986%
- CL/F ([1]; po, 30 mg): 2820 mL/h
- Cmax ([1]; po, 30 mg): 386 ng/mL
- Tmax ([1]; po, 30 mg): 0.75 h
- half-life ([1]; po, 30 mg): 29.4 h
- AUC(0-inf) ([1]; po, 90 mg): 32200 ng·h/mL
- AUC(0-t) ([1]; po, 90 mg): 18300 ng·h/mL
- AUCextrapoloated ([1]; po, 90 mg): 0456%
- CL/F ([1]; po, 90 mg): 2830 mL/h
- Cmax ([1]; po, 90 mg): 1380 ng/mL
- Tmax ([1]; po, 90 mg): 1.25 h
- Vd/F ([1]; po, 90 mg): 102 L
- half-life ([1]; po, 90 mg): 25.3 h
- AUC(0-inf) ([1]; po, 180 mg): 65800 ng·h/mL
- AUC(0-t) ([1]; po, 180 mg): 33200 ng·h/mL
- AUCextrapoloated ([1]; po, 180 mg): 0.789%
- CL/F ([1]; po, 180 mg): 2900 mL/h
- Cmax ([1]; po, 180 mg): 2490 ng/mL
- Tmax ([1]; po, 180 mg): 1 h
- Vd/F ([1]; po, 180 mg): 114 L
- half-life ([1]; po, 180 mg): 28 h
- AUC(0-inf) ([1]; po, 360 mg): 147000 ng·h/mL
- AUC(0-t) ([1]; po, 360 mg): 73200 ng·h/mL
- AUCextrapoloated ([1]; po, 360 mg): 0719%
- CL/F ([1]; po, 360 mg): 2480 mL/h
- Cmax ([1]; po, 360 mg): 5750 ng/mL
- Tmax ([1]; po, 360 mg): 0.5 h
- half-life ([1]; po, 360 mg): 27.8 h
- dose at which maximum effect on aldosterone reduction reached (aldosterone synthase): 10 mg
